The results in this text go back to patent publication US7026353B2, “Inhibition of Gram positive bacteria” (Unisearch Limited, A.C.N., priority 1998, dated 2006).

One data set concerns Enterococcus faecalis. The data set can be described thus: Screening against growth in NB, microplate reader, 24 hours. Type of data set: cell-based. As to conditions: 10 μg/ml, after 24 hr. The protocol:
(§1) A screening of six different furanone compounds against growth of Staphylococcus aureus, Staphylococcus epidermidis. Streptococcus salivarius, Streptococcus pyogenes, Enterococcus faecalis and Micrococcus luteus was performed in) a BioRad 3550 Microplate Reader. Ten percent of overnight cultures were added to the growth media. NB containing furanones at the concentration 10 μg/ml. The bacteria were incubated at 37° C. and growth was measured at 595 nm for 24 hours.

The test system of a further data set is Micrococcus luteus. The data set is described as above. Type of data set: cell-based. To be noted: 10 μg/ml, after 24 hr. The method, then: as §1
The test system of a further data set is Streptococcus pyogenes. Described as above. Type of data set: cell-based. As to conditions: 10 μg/ml, after 24 hr. The protocol: as §1
The test system of another data set is Streptococcus salivarius. Described as above. Type of data set: cell-based. To be noted: 10 μg/ml, after 24 hr. The method, then: as §1
For data set [1], the system named is Staphylococcus aureus. The data set is described as above. Type of data set: cell-based. To be noted: 10 μg/ml, after 24 hr. The method, then: as §1
The test system of data set [2] is Staphylococcus epidermidis. The description is as above. Type of data set: cell-based. To be noted: 10 μg/ml, after 24 hr. The method, then: as §1
The next data set deals with S. epidermidis 017. The data set can be described thus: Effect on the growth of ocular bacteria in TSB. Type of data set: cell-based. To be noted: for Percentage growth compared to the control values: after 24 h, TSB; for Effect on growth curves: S. epidermidis strains, FIGS. 3 to 5. The method, then: (§2) Strains were cultured in 5 ml of TSB with or without SUs in 35° C. water bath with agitation (120 rpm). Growth rates were monitored by reading OD660nm at time intervals of 1, 2, 3, 4, 5, 7, and 24 hours.

The next data set concerns S. aureus 015. The data set can be described thus: Effect on the growth of ocular bacteria in TSB. Type of data set: cell-based. As to conditions: for Effect on growth curves: S. aureus strains, FIGS. 3 to 5. The protocol: as §2
Data set [3] relates to mouse fibroblast cell line L292. The experiment in a line: Cytotoxicity measured as inhibition of the growth of mouse fibroblast cells. Type of data set: cell-based. As to conditions: for Lowest concentration of furanones which significantly inhibited the growth of mouse fibroblast cell line: 30% depression of growth deemed significant. The protocol:
(§3) All initial screening of six different furanones against growth of Staphylococcus aureus and Staphylococcus epidermidis was performed in a BioRad 3550 Microplate Reader. Ten percent (10%) of an overnight culture (10^8 cells/ml, resulting in final cell densities of 10^6 cells/ml) was added to the growth media. Nutrient Broth, containing furanones at the concentrations 10 and 1 μg/ml. The bacteria were incubated at 37° C. and growth was measured at […] for 9 hours. Cytotoxicity in mammalian systems was measured as inhibition of the growth of mouse fibroblast cells.

The test system of data set [4] is Staphylococcus aureus. The experiment in a line: Initial screening against growth in Nutrient Broth, microplate reader, 9 hours. Type of data set: cell-based. To be noted: for % growth compared to the control value: after 9 hr. The protocol: as §3
Data set [5] deals with Staphylococcus epidermidis. Described as above. Type of data set: cell-based. To be noted: for % growth compared to the control value: after 9 hr. The method, then:
as §3

For a further data set, the system named is Corynebacterium 003. The experiment in a line: Effect on the growth of ocular bacteria in TSB. Type of data set: cell-based, Corynebacterium sp. As to conditions: for Percentage growth compared to the control values: after 24 h, TSB. The method, then:
as §2

In the case of `CCCCC1=C(Br)C(=CBr)OC1=O` [Compound 2], the “% growth compared to the control value” in the data set with Enterococcus faecalis is recorded as 77%; in the data set on Micrococcus luteus, 86%; with Streptococcus pyogenes it was 87%; in the data set on Streptococcus salivarius, 86%; in the data set on Staphylococcus aureus [1] it was 58%; in data set [2] it was 53%. Moreover, the “% growth compared to the control value” was 87.9% in the data set on Staphylococcus aureus [4] (1 μg/ml), 57.9% in the data set on Staphylococcus aureus [4] (10 μg/ml), 63.7% in data set [5] (1 μg/ml) and 53.2% in data set [5] (10 μg/ml). The entries for the “Percentage growth compared to the control values” in the data set on S. epidermidis 017 (100 μg/ml) and in the data set with Corynebacterium 003 (100 μg/ml) were 7% and 14%, respectively. Also, the “Effect on growth curves” value in the data set with S. epidermidis 017 (100 μg/ml) and in the data set with S. aureus 015 (100 μg/ml) was “inhibited the growth” throughout. For the same compound, in data set [3], the “Lowest concentration of furanones which significantly inhibited the growth of mouse fibroblast cell line” value is 150 µg/mL. The Inhibition of growth result with Corynebacterium 003 (100 μg/ml) was “approximately 86%”.
In the case of `CCCC(OC(C)=O)C1=C(Br)C(=CBr)OC1=O` (stereo not drawn) [Compound 4, reference compound], the “% growth compared to the control value” in the data set on Enterococcus faecalis is on record as 75%; in the data set on Micrococcus luteus it was 75%; in the data set with Streptococcus pyogenes, 0%; in the data set on Streptococcus salivarius, 85%; in the data set on Staphylococcus aureus [1], 34%; in data set [2], 53%. In addition, the “% growth compared to the control value” in the data set on Staphylococcus aureus [4] (1 μg/ml) was 84.2%; in the data set on Staphylococcus aureus [4] (10 μg/ml), 34.3%; in [5] (1 μg/ml), 77.1%; in data set [5] (10 μg/ml), 53.2%. For the same compound, in [3], the “Toxicity against mammalian cell lines” value is listed as “quite toxic”. For the same compound, the “Lowest concentration of furanones which significantly inhibited the growth of mouse fibroblast cell line” value in [3] stood at 1 µg/mL.
As for `O=C1C=C(Br)/C(=C/Br)O1` [Compound 30], the “% growth compared to the control value” in the data set on Enterococcus faecalis stood at 54%; in the data set on Micrococcus luteus it was 86%; in the data set with Streptococcus pyogenes it was 50%; in the data set on Streptococcus salivarius, 73%; with Staphylococcus aureus [1], 0%; in data set [2] it was 62%. Moreover, the “% growth compared to the control value” in the data set on Staphylococcus aureus [4] (1 μg/ml) was 56.6%; in the data set with Staphylococcus aureus [4] (10 μg/ml), 0%; in data set [5] (1 μg/ml), 72.1%; in [5] (10 μg/ml), 62.2%. The “Percentage growth compared to the control values” stood at 91% in the data set on S. epidermidis 017 (10 μg/ml); 97% with S. aureus 015 (10 μg/ml, after 24 h, TSB); 90% with Corynebacterium 003 (10 μg/ml). Besides, the “Effect on growth curves” value in the data set with S. epidermidis 017 (10 μg/ml) and in the data set with S. aureus 015 (10 μg/ml) was “only slowed down the growth” in each case. Besides, in data set [3], the “Lowest concentration of furanones which significantly inhibited the growth of mouse fibroblast cell line” value was 20 µg/mL. Further, the “Inhibition of growth” value (with Staphylococcus aureus [4] (10 ug/ml); in data set [5] (10 ug/ml)) was “completely inhibiting growth” in each case. Moreover, the “Effect on growth” value in the data set on Corynebacterium 003 (10 μg/ml) was “only slowed down the growth”. The compound further displayed a Growth reached in the data set on Corynebacterium 003 (20 μg/ml (as printed in text), after 24 h incubation) of 90%.
For `CCCC(F)C1=C(Br)/C(=C/Br)OC1=O` (stereo not drawn) [Compound 45], the “% growth compared to the control value” in the data set with Enterococcus faecalis was found to be 85%; in the data set with Micrococcus luteus, 100%; in the data set with Streptococcus pyogenes, 26%; in the data set with Streptococcus salivarius it was 69%; in the data set on Staphylococcus aureus [1] it was 4%; in data set [2], 22%.
